For 17 compounds, IC50, viability and Activity results are on record in ChEMBL document CHEMBL3044866, “A facile and single pot strategy for the synthesis of novel naphthyridine derivatives under microwave irradiation conditions using ZnCl2 as catalyst, evaluation of AChE inhibitory activity, and molecular modeling studies” (Med Chem Res, 2012).

Each structure is given as a SMILES string. pIC50: −log10 of the molar value.

One data set has as its target Acetylcholinesterase (Homo sapiens, UniProt P22303). Briefly: Inhibition of AChE (unknown origin) after 10 min by Ellmans method. For orientation: In Ellman's method for cholinesterases, released thiocholine reacts with DTNB.
Data set [1] in a line: in vitro. The settings on record: human, THLE2 cells.
Description: Cytotoxicity against Homo sapiens (human) THLE2 cells assessed as viable cells at 0.5 uM after 48 hr by MTT assay
A short description of data set [2]: in vitro. The settings on record: human, THLE2 cells. This is another data set of the same source.
Description: Cytotoxicity against Homo sapiens (human) THLE2 cells assessed as viable cells at 10 uM after 48 hr by MTT assay
Data set [3] in a line: in vitro. The note with it: human, THLE2 cells. This is another data set of the same source.
Description: Cytotoxicity against Homo sapiens (human) THLE2 cells assessed as viable cells at 1 uM after 48 hr by MTT assay
Data set [4] can be described thus: Cytotoxicity against Homo sapiens (human) THLE2 cells assessed as cell death at 10 uM after 48 hr by MTT assay. The format is cell-based. The settings on record: thle-2, 48 h.

Chain of Acetylcholinesterase (P22303 whole entry): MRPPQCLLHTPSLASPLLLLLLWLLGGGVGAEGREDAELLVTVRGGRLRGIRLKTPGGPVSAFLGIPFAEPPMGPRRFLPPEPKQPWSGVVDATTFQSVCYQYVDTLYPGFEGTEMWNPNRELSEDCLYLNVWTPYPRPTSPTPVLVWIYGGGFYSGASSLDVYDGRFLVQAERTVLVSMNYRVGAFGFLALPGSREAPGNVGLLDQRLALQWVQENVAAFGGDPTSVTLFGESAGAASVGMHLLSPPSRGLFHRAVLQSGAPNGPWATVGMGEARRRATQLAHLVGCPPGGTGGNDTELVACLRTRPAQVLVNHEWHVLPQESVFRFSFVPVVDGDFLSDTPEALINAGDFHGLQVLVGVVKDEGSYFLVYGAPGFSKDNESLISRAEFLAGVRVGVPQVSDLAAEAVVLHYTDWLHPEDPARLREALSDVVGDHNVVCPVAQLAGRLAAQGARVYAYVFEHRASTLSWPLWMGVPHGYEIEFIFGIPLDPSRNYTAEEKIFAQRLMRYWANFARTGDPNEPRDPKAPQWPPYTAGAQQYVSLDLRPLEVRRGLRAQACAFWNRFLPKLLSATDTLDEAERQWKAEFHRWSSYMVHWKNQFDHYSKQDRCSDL

What is called pIC50 is the IC50 on a negative log10 scale, so that one unit is a factor of ten. Regarding `Nc1c2c(nc3nc(-c4ccccc4)cc(C(F)(F)F)c13)-c1ccccc1CC2`, on Acetylcholinesterase, the pIC50 was 4.64. On Acetylcholinesterase, `CC(C)Cc1cc(N)c2c(C(F)(F)F)cc(-c3ccccc3)nc2n1` had a pIC50 of 4.72.

The term viability denotes a read-out of living cells in per cent, often relative to untreated cells. High values mean better survival, low ones a greater loss of cells. In the case of `Nc1cc(-c2ccccc2Br)nc2nc(-c3ccccc3)cc(C(F)(F)F)c12`, the viability at 48 h, 0.5 µM in “in vitro [1]” came to 98.7%. The compound also had a negative logarithm of the IC50 (pIC50) on Acetylcholinesterase of 6.05. The viability at 48 h, 10 µM in “in vitro [2]” was found to be 99.9%. The compound also gave a viability at 48 h, 1 µM in the data set “in vitro [3]” of 95.9%. On Acetylcholinesterase, `COc1ccc(-c2cc(N)c3c(C(F)(F)F)cc(-c4ccccc4)nc3n2)cc1` gave a pIC50 of 5.08. For `Nc1cc(-c2ccc(Cl)cc2)nc2nc(-c3ccccc3)cc(C(F)(F)F)c12`, in data set [4], the Activity is 16%. In the data set “in vitro [1]”, this compound came in with a viability at 48 h, 0.5 µM of 97.1%. In addition, on Acetylcholinesterase, the pIC50 is 6.28. In “in vitro [2]”, this compound had a viability at 48 h, 10 µM of 84.2%. The same compound had a viability at 48 h, 1 µM in the data set “in vitro [3]” of 98.1%. As to `Nc1c2c(nc3nc(-c4ccccc4)cc(C(F)(F)F)c13)-c1ccccc1C2`, on Acetylcholinesterase, the negative logarithm of the IC50 (pIC50) was 4.76. The same measure, in the same setting: as for `Nc1cc(-c2ccccc2)nc2nc(-c3ccccc3)cc(C(F)(F)F)c12`, the figure is 5.15; as for `Nc1c2c(nc3nc(-c4ccccc4)cc(C(F)(F)F)c13)CCCCC2`, 4.99; as for `Nc1cc(-c2cccc(F)c2)nc2nc(-c3ccccc3)cc(C(F)(F)F)c12`, 5.15. On the same count and under the same terms, to `CC1CCc2nc3nc(-c4ccccc4)cc(C(F)(F)F)c3c(N)c2C1` (centres undefined) belongs 6.29; to `Nc1c2c(nc3nc(-c4ccccc4)cc(C(F)(F)F)c13)CCCC2`, 6.46. For `Nc1cc(-c2cccs2)nc2nc(-c3ccccc3)cc(C(F)(F)F)c12`, the negative-log IC50 (pIC50) against Acetylcholinesterase was 4.98. `CC1CCc2c(nc3nc(-c4ccccc4)cc(C(F)(F)F)c3c2N)C1` (centres undefined) gave a pIC50 at Acetylcholinesterase of 5.49. `CC1Cc2nc3nc(-c4ccccc4)cc(C(F)(F)F)c3c(N)c2C1` (centres undefined): the negative-log IC50 (pIC50) against Acetylcholinesterase is 5.03.

Consider `Nc1c2c(nc3nc(-c4ccccc4)cc(C(F)(F)F)c13)CCC2`, for which the pIC50 against Acetylcholinesterase was 5.09. With `Nc1cc(-c2ccc(F)cc2)nc2nc(-c3ccccc3)cc(C(F)(F)F)c12`, the pIC50 at Acetylcholinesterase was 5.18. The same measure, in the same setting: to `Nc1c2c(nc3nc(-c4ccccc4)cc(C(F)(F)F)c13)CCCCCC2` belongs 5.11.
